According to BindingDB's records for doi:10.1021/jm9802158 (Upjohn, 1998):

molecular target: T1, Dimer of Gag-Pol polyprotein [489-587] (Human immunodeficiency virus 1, UniProt P04585); assay: Protease Inhibition Assay; settings: pH 5; 22 °C
T1 construct: 489-587
Description: (§1) HIV-1 protease was purified and refolded from E. coli inclusion bodies. The substrate used spans the p17-p24 processing site (R-V-S-Q-N-Y-P-I-V-Q-N-K) and was derivatized with biotin and fluorescein isothiocyanate (FITC) at the amino and carboxy termini. In the presence of HIV-l protease, the substrate is rapidly cleaved into two parts. The biotinylated amino terminal fragment binds to the avidin beads while the FITC-containing carboxy1 terminal fragment is removed through the membrane. […] The bound fluorescence is obtained by processing on an IDEXX Screen Machine. Determination of Ki values with this assay requires analysis under conditions in which substrate concentration resides substantially below Km and the inhibitor concentrations greatly exceeds the Ki value and the enzyme concentration.

Compound | Ki [nM]
CCCC1(CCc2ccccc2)CC(=O)C(C(c2cccc(NS(=O)(=O)c3ccc(N)cn3)c2)C(C)(C)C)C(=O)O1 (stereo not given) [5-amino-N-(3-{1-[4-hydroxy-2-oxo-6-(2-phenylethyl)-6-propyl-5,6-dihydro-2H-pyran-3-yl]-2,2-dimethylpropyl}phenyl)pyridine-2-sulfonamide] | 0.2
CCCC1(CCc2ccccc2)CC(=O)C(C(CC)c2cccc(NS(=O)(=O)c3ccc(C#N)cn3)c2)C(=O)O1 (stereo not given) [5-cyano-N-(3-{1-[4-hydroxy-2-oxo-6-(2-phenylethyl)-6-propyl-5,6-dihydro-2H-pyran-3-yl]propyl}phenyl)pyridine-2-sulfonamide] | 0.1

molecular target: T2, Dimer of Gag-Pol polyprotein [489-587] (Human immunodeficiency virus 1, UniProt P12497); assay: Protease Inhibition Assay; settings: pH 5; 22 °C
T2 construct: 489-587
Description: as §1

Compound | Ki [nM]
CCCC1(CCc2ccccc2)CC(=O)C(C(c2cccc(NS(=O)(=O)c3ccc(C#N)cc3)c2)C(C)(C)C)C(=O)O1 (stereo not given) [4-cyano-N-(3-{1-[4-hydroxy-2-oxo-6-(2-phenylethyl)-6-propyl-5,6-dihydro-2H-pyran-3-yl]-2,2-dimethylpropyl}phenyl)benzene-1-sulfonamide] | 12
CCCC1(CCc2ccccc2)CC(=O)C(C(CC)c2cccc(NS(=O)(=O)c3ccc(C#N)cc3)c2)C(=O)O1 (stereo not given) [4-cyano-N-(3-{1-[4-hydroxy-2-oxo-6-(2-phenylethyl)-6-propyl-5,6-dihydro-2H-pyran-3-yl]propyl}phenyl)benzene-1-sulfonamide] | 8.2
CCCC1(CCc2ccccc2)CC(=O)C(C(c2cccc(NS(=O)(=O)c3ccc(C#N)cn3)c2)C(C)(C)C)C(=O)O1 (stereo not given) [N-(3-[1-(5,6-Dihydro-4-hydroxy-2-oxo-6-phenethyl-6-propyl-2H-pyran-3-yl)-2,2-dimethylpropyl]phenyl)-5-cycano-2-pyridinesulfonamide] | 1.9
CCCC1(CCc2ccccc2)CC(=O)C(C(c2cccc(NS(=O)(=O)c3ccc(C(F)(F)F)cn3)c2)C(C)(C)C)C(=O)O1 (stereo not given) [N-(3-[1-(5,6-Dihydro-4-hydroxy-2-oxo-6-phenethyl-6-propyl-2H-pyran-3-yl)-2,2-dimethylpropyl]phenyl)-5-trifluoromethyl-2-pyridinesulfonamide] | 4.3
CCCC1(CCc2ccccc2)CC(=O)C(Cc2cccc(NS(=O)(=O)c3cn(C)cn3)c2)C(=O)O1 (stereo not given) [N-(3-[1-(5,6-Dihydro-4-hydroxy-2-oxo-6-phenethyl-6-propyl-2H-pyran-3-yl)methyl]phenyl)-1-methyl-1H-imidazole-4-sulfonamide] | 13
CCC(c1cccc(NS(=O)(=O)c2cn(C)cn2)c1)C1C(=O)CC(CCc2ccccc2)(CCc2ccccc2)OC1=O (stereo not given) [N-(3-{1-[4-hydroxy-2-oxo-6,6-bis(2-phenylethyl)-5,6-dihydro-2H-pyran-3-yl]propyl}phenyl)-1-methyl-1H-imidazole-4-sulfonamide] | 1
CCCC1(CCc2ccccc2)CC(=O)C(C(c2cccc(NS(=O)(=O)c3ccc([N+](=O)[O-])cn3)c2)C(C)(C)C)C(=O)O1 (stereo not given) [N-(3-{1-[4-hydroxy-2-oxo-6-(2-phenylethyl)-6-propyl-5,6-dihydro-2H-pyran-3-yl]-2,2-dimethylpropyl}phenyl)-5-nitropyridine-2-sulfonamide] | 2.3
CCCC1(CCc2ccccc2)CC(=O)C(C(CC)c2cccc(NS(=O)(=O)CCC)c2)C(=O)O1 (stereo not given) [N-(3-{1-[4-hydroxy-2-oxo-6-(2-phenylethyl)-6-propyl-5,6-dihydro-2H-pyran-3-yl]propyl}phenyl)propane-1-sulfonamide] | > 1000
CCC(c1cccc(NS(=O)(=O)c2cn(C)cn2)c1)C1C(=O)CC(CC(C)C)(CC(C)C)OC1=O (stereo not given) [N-(3-{1-[4-hydroxy-6,6-bis(2-methylpropyl)-2-oxo-5,6-dihydro-2H-pyran-3-yl]propyl}phenyl)-1-methyl-1H-imidazole-4-sulfonamide] | 3
CCC(c1cccc(NS(=O)(=O)c2cn(C)cn2)c1)C1C(=O)CC(CCC2CC2)(CCC2CC2)OC1=O (stereo not given) [N-(3-{1-[6,6-bis(2-cyclopropylethyl)-4-hydroxy-2-oxo-5,6-dihydro-2H-pyran-3-yl]propyl}phenyl)-1-methyl-1H-imidazole-4-sulfonamide] | 1.7
CCC(c1cccc(NS(=O)(=O)c2cn(C)cn2)c1)C1C(=O)CC2(OC1=O)C1CC3CC(C1)CC2C3 (stereo not given) [N-[3-(1-{4'-hydroxy-3',6'-dihydrospiro[adamantane-2,2'-pyran]-6'-one}propyl)phenyl]-1-methyl-1H-imidazole-4-sulfonamide] | 23
CCCC1(CCC)CC(=O)C(C(c2cccc(NS(=O)(=O)c3cn(C)cn3)c2)C2CC2)C(=O)O1 (stereo not given) [N-[3-[1-(5,6-Dihydro-4-hydroxy-2-oxo-6,6-dipropyl-2H-pyran-3-yl)cyclopropylmethyl]phenyl]-1-methyl-1H-imidazolesulfonamide] | 0.52
CCCC1(CCC)CC(=O)C(C(CC)c2cccc(NS(=O)(=O)c3cn(C)cn3)c2)C(=O)O1 (stereo not given) [N-[3-[1-(5,6-Dihydro-4-hydroxy-2-oxo-6,6-dipropyl-2H-pyran-3-yl)propyl]phenyl]-1-methyl-1H-imidazolesulfonamide] | 1.8
CCCC1(CCc2ccccc2)CC(=O)C(C(c2cccc(NS(=O)(=O)c3cn(C)cn3)c2)C2CC2)C(=O)O1 (stereo not given) [N-[3-[1-(5,6-Dihydro-4-hydroxy-2-oxo-6-phenethyl-6-propyl-2H-pyran-3-yl)cyclopropylmethyl]phenyl]-1-methyl-1H-imidazole-4-sulfonamide] | 0.71
CCCC1(CCC)CC(=O)C(C(c2cccc(NS(=O)(=O)c3cn(C)cn3)c2)C(C)(C)C)C(=O)O1 (stereo not given) [N-[3-{1-(5,6-Dihydro-4-hydroxy-2-oxo-6,6-dipropyl-2H-pyran-3-yl)-2,2-dimethylpropyl)phenyl]-1-methyl-1H-imidazole-4-sulfonamide] | 0.87
CCCC1(CCc2ccccc2)CC(=O)C(C(c2cccc(NS(=O)(=O)c3cn(C)cn3)c2)C(C)(C)C)C(=O)O1 (stereo not given) [N-[3-{1-(5,6-Dihydro-4-hydroxy-2-oxo-6-phenethyl-6-propyl-2H-pyran-3-yl)-2,2-dimethylpropyl)phenyl]-1-methyl-1H-imidazole-4-sulfonamide] | 1.2
CCC(c1cccc(NS(=O)(=O)c2cn(C)cn2)c1)C1C(=O)CC(COCCOCCOC)(COCCOCCOC)OC1=O (stereo not given) [N-[3-{1-(5,6-Dihydro-4-hydroxy-2-oxo--6,6-bis((2-(2-methoxyethoxy)ethoxy)methyl)-2H-pyran-3-yl)propyl}phenyl]-1-methyl-1H-imidazole-4-sulfonamide] | 28
CCCC1(CCc2ccc(F)cc2)CC(=O)C(C(CC)c2cccc(NS(=O)(=O)c3cn(C)cn3)c2)C(=O)O1 (stereo not given) [N-[3-{1-(5,6-Dihydro-4-hydroxy-2-oxo--6-(2-(4-fluorophenyl)ethyl)-6-propyl-2H-pyran-3-yl)propyl}phenyl]-1-methyl-1H-imidazole-4-sulfonamide] | 3
